Earlier results, collected in patent publication US20240408056A1, “METHODS FOR REPAIRING NERVE DAMAGE USING PKC ACTIVATING THERAPEUTIC AGENTS” (priority 2023, published 2024).
Like-named read-outs stand apart in the source and are kept apart here.

Biological target: PKC
[1] = A-ring bryologs, read-out: affinity for PKC

SMILES	Ki (Table 1, Bryologs, read-out: PKC Affinity) [nM]	affinity for PKC (in words) (compared with Bryostatin-1 and the other bryologs)	Ki [1] [nM]
CCCCCCCC(=O)OC1C(=CC(=O)OC)CC2CC(CO)OC(=O)CC(O)CC3CCCC(CC4CCOC(C=CC(C)(C)C1(O)O2)O4)O3 (centres unmarked) [Analog 1]	0.25	highest affinity for PKC	–
CCCCCCCC(=O)OC1C(=CC(=O)OC)CC2CC(CO)OC(=O)CC(O)CCOC(C(C)(C)C)CC3CCOC(C=CC(C)(C)C1(O)O2)O3 (centres unmarked) [bryolog 3]	–	–	6.5
CCCCCCCC(=O)OC1C(=CC(=O)OC)CC2CC(CO)OC(=O)CC(O)CCOC(c3ccccc3)CC3CCOC(C=CC(C)(C)C1(O)O2)O3 (centres unmarked) [bryolog 4]	–	–	2.3
CCCCCCCC(=O)OC1C(=CC(=O)OC)CC2CC(CO)OC(=O)CC(O)CCOC(CCCc3ccc(Br)cc3)CC3CCOC(C=CC(C)(C)C1(O)O2)O3 (centres unmarked) [bryolog 5]	–	–	1.9
